GI50 and TGI data for ten molecules are collected here from PubChem BioAssay (NCI).

Where “and” joins values, the source holds several entries; their conditions need not be identical. Equal entries are not always repeated.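 96-well plates; 48 h exposure; 5 concentrations. Endpoints by linear interpolation between flanking doses. Not reached: highest tested concentration assigned. GI50 is the concentration that inhibits growth by half. At the TGI there is no net growth.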

Test systems include NCI-H23 lung; NCI-H522 lung; A498 renal; SF-268 CNS; NCI-H460 lung; ACHN renal; CCRF-CEM leukemia; HT29 colon; LOX IMVI melanoma; HOP-62 NSCLC.
Holding throughout (assay): NCI anticancer screen, dose series, 48 h

With `NCCCCn1c2c(c3ccccc3c1=O)C(=O)c1ccccc1-2`, the GI50 with NCI-H23 lung is 0.129 µM; with NCI-H522 lung, 0.424 µM; in the test with A498 renal it was 0.543 µM; in the test with SF-268 CNS it was 0.208 µM; with NCI-H460 lung, < 0.0218 µM; in the test on ACHN renal it was 0.0161 µM. In addition, the GI50 was 0.0195 µM with CCRF-CEM leukemia, 0.163 µM in the test on HT29 colon, 0.0269 µM in the test on LOX IMVI melanoma and 0.0528 µM with HOP-62 NSCLC. For the same molecule, the TGI in the test on NCI-H23 lung turned out to be 0.655 µM; with NCI-H522 lung, 2.31 µM; with A498 renal it was 1.71 µM; in the test on SF-268 CNS, 1.86 µM; with NCI-H460 lung, 0.614 µM; in the test on ACHN renal, 0.123 µM. Moreover, the TGI stood at 1.6 µM in the test with CCRF-CEM leukemia, 0.346 µM in the test with LOX IMVI melanoma and 0.272 µM with HOP-62 NSCLC.
Turning to `CC(C)(C)C1=CC(=CC=C2C=CN(CCCCCCCCCCCO)C=C2)C=C(C(C)(C)C)C1=O`, the TGI in the test on NCI-H23 lung is 10.6 µM; with NCI-H522 lung, 1.29 µM; in the test on A498 renal, 7.3 µM; in the test with SF-268 CNS, 3.83 µM; in the test on NCI-H460 lung, 4.55 µM; with ACHN renal it was > 25.2 µM. Besides, the TGI in the test with CCRF-CEM leukemia was 11.7 µM; with HT29 colon, > 25.7 µM; in the test with LOX IMVI melanoma it was 1.69 µM; in the test with HOP-62 NSCLC, 3.63 µM.
For the molecule `N#CCCN(CCC#N)c1ccc(C(=O)NN)cc1`, the TGI in the test with NCI-H23 lung, in the test with NCI-H522 lung, with A498 renal, in the test with SF-268 CNS, with NCI-H460 lung and in the test with ACHN renal was > 100 µM in each case. The TGI with CCRF-CEM leukemia, with HT29 colon, in the test on LOX IMVI melanoma and with HOP-62 NSCLC was > 100 µM in each case.
For `C[C@]12CC[C@@H]3c4ccc(O)cc4CC[C@H]3[C@@H]1CC[C@@H]2NS(=O)(=O)c1ccc(C(F)(F)F)cc1`, the GI50 with NCI-H23 lung is 2.08 µM; in the test on NCI-H522 lung, 1.69 µM; in the test on A498 renal, 1.25 µM; in the test on SF-268 CNS, 3.1 µM; in the test on NCI-H460 lung, 1.98 µM; with ACHN renal, 1.63 µM. Besides, the GI50 in the test on CCRF-CEM leukemia was 2.77 µM; with HT29 colon it was 2.01 µM; in the test on LOX IMVI melanoma, 1.68 µM; in the test with HOP-62 NSCLC it was 2 µM. Also, the TGI in the test with NCI-H23 lung worked out at 5.43 µM; in the test on NCI-H522 lung it was 3.85 µM; with A498 renal, 2.74 µM; in the test on SF-268 CNS, 11.8 µM; in the test with NCI-H460 lung, 4.11 µM; in the test with ACHN renal it was 3.06 µM. Also, the TGI with CCRF-CEM leukemia came out at 9.8 µM; in the test with HT29 colon it was 3.94 µM; in the test with LOX IMVI melanoma it was 3.06 µM; with HOP-62 NSCLC it was 3.7 µM.
For the molecule `O=C1C2=C(CC3C(C2)C3(Br)Br)C(=O)C2=C1CC1C(C2)C1(Br)Br` (centres undefined), the TGI with NCI-H23 lung, in the test with NCI-H522 lung, in the test with A498 renal, in the test with SF-268 CNS, in the test with NCI-H460 lung and with ACHN renal was > 100 µM throughout. Moreover, the TGI in the test on CCRF-CEM leukemia, in the test on HT29 colon, in the test on LOX IMVI melanoma and in the test on HOP-62 NSCLC was > 100 µM each time.
As to `COc1cc([N+](=O)[O-])ccc1NC(=O)C(F)(F)F`, the TGI in the test on NCI-H23 lung, in the test on NCI-H522 lung, with A498 renal, with SF-268 CNS, with NCI-H460 lung and in the test on ACHN renal was > 100 µM each time. Also, the TGI with CCRF-CEM leukemia, in the test on HT29 colon, with LOX IMVI melanoma and with HOP-62 NSCLC was > 100 µM throughout.
With `COC(=O)c1cc2c(c(C(=O)OC)c1O)C(=O)C=CC2=O`, the GI50 in the test with NCI-H23 lung was > 9.1 µM; in the test on NCI-H522 lung, 3.01 µM; with A498 renal, > 9.1 µM; in the test with SF-268 CNS, > 9.1 µM; in the test with NCI-H460 lung it was > 9.1 µM; in the test with ACHN renal it was > 9.1 µM. Further, the GI50 with HT29 colon is 18.4 µM; with LOX IMVI melanoma, > 9.1 µM; in the test with HOP-62 NSCLC it was > 9.1 µM. Besides, the TGI is > 31.6 µM with NCI-H23 lung; 9.1 µM and > 26.9 µM with NCI-H522 lung; > 55.8 µM in the test on A498 renal; > 55.2 µM with SF-268 CNS; > 74.3 µM in the test on NCI-H460 lung; > 46.3 µM in the test with ACHN renal. The TGI in the test with CCRF-CEM leukemia was 4.31 µM; in the test on HT29 colon, > 9.1 µM and 38.5 µM; in the test on LOX IMVI melanoma it was > 56.9 µM; in the test on HOP-62 NSCLC it was > 93.4 µM.
As for `CCC1(O)C(=O)OCc2c1cc1n(c2=O)Cc2cc3c(N)cccc3nc2-1` (centres undefined), the TGI was found to be 0.0806 µM in the test with NCI-H23 lung; 0.763 µM in the test with NCI-H522 lung; 1.39 µM in the test with A498 renal; 0.579 µM in the test with SF-268 CNS; 1.13 µM with NCI-H460 lung; 0.157 µM in the test on ACHN renal. For the same molecule, the TGI with CCRF-CEM leukemia came to 0.0858 µM; in the test on HT29 colon, 22.8 µM; with LOX IMVI melanoma, 0.23 µM; in the test on HOP-62 NSCLC, 0.0748 µM. Moreover, in the test on NCI-H522 lung, the GI50 was 0.0231 µM.
Regarding `CC12CCCC(CC(=O)c3[nH]c4ccccc4c31)C2` (centres undefined), the GI50 in the test on NCI-H23 lung is 2.07 µM; in the test on NCI-H522 lung, 0.451 µM; in the test on A498 renal, 0.483 µM; in the test on SF-268 CNS it was 1.94 µM; in the test with NCI-H460 lung, 1.58 µM; in the test on ACHN renal, 0.856 µM. Further, the GI50 is 0.459 µM in the test with CCRF-CEM leukemia, 0.377 µM in the test with HT29 colon, 0.615 µM in the test with LOX IMVI melanoma and 0.813 µM in the test on HOP-62 NSCLC. The TGI in the test with NCI-H23 lung is > 63.1 µM; in the test on NCI-H522 lung, 5.29 µM; in the test with A498 renal, 4 µM; in the test on SF-268 CNS it was > 65.2 µM; in the test on NCI-H460 lung, 19.7 µM; in the test on ACHN renal, > 100 µM. Besides, the TGI is > 100 µM in the test on CCRF-CEM leukemia, 6.27 µM in the test with HT29 colon, 20.9 µM in the test with LOX IMVI melanoma and 50 µM in the test on HOP-62 NSCLC.
For the molecule `CC(C)=CC(=O)N1CCN(C(=O)C=C(C)C)CC1`, the TGI in the test with NCI-H23 lung, in the test with NCI-H522 lung, in the test with A498 renal, in the test on SF-268 CNS, in the test with NCI-H460 lung and in the test with ACHN renal was > 100 µM each time. Further, the TGI with CCRF-CEM leukemia, with HT29 colon, with LOX IMVI melanoma and in the test on HOP-62 NSCLC was > 100 µM throughout.
